Data: paper PMC6934184, “Selective DNA-PKcs inhibition extends the therapeutic index of localized radiotherapy and chemotherapy” (The Journal of Clinical Investigation, 2019)

Biological target: T1, KIT T670I (Homo sapiens, UniProt P10721, T670I)
T1 construct: purchased Thermo Fisher Scientific (Life Technologies) SelectScreen
Assay: SelectScreen Z'LYTE
Assay type: biochemical
Outline: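 SelectScreen broad panel; activity (Z'LYTE, Adapta) plus binding formats. ATP: Km app for CSF1R Z'LYTE; 10 for CAMK1 Adapta. Readout = % per kinase.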

T1 sequence (P10721 26-976 T670I): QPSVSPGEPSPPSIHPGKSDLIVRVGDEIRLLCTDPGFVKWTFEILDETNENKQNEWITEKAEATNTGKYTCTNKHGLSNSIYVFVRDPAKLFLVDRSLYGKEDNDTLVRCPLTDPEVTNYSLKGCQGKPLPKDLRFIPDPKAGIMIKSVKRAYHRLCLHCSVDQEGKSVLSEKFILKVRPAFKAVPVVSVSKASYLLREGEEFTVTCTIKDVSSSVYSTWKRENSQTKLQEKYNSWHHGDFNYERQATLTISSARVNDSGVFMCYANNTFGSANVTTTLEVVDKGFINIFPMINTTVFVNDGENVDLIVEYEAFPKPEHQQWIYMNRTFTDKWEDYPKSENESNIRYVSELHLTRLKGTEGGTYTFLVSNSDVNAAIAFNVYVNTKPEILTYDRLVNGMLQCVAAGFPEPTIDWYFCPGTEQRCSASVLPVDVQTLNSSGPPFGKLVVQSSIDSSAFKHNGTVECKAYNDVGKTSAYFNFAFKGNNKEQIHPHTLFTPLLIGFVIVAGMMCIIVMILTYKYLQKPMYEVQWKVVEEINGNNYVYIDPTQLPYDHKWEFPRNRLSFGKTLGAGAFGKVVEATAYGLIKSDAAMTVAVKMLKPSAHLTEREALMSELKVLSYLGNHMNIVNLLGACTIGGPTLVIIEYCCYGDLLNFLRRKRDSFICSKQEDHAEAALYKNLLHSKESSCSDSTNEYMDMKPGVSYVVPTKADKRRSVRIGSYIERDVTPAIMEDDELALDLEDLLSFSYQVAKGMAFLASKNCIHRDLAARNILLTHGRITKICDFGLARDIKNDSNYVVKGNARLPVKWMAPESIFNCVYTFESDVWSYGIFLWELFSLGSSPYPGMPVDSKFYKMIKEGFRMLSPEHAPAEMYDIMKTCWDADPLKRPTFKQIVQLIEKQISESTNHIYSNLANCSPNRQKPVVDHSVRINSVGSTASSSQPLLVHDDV

## CN(C(=O)CN1CCOCC1)c1ccc2sc3c(-c4cccc5c(=O)cc(N6CC7CCC(C6)O7)oc45)cccc3c2c1 [NU5455]
  inhibition at 1 µM: -24.4%
